Test results published in publication PMC8398983, “Triarylborane Dyes as a Novel Non-Covalent and Non-Inhibitive Fluorimetric Markers for DPP III Enzyme” (Molecules, 2021).
Changes are numbered by the printed parent chain.

How the values were obtained:
Experiment in all cases: fluorimetric titration, […] fit
Type in all cases: binding
[1] = molecular target: T1, BSA (bovine serum albumin) (Bos taurus, UniProt P02769); settings: read-out: logKs (converted)
T1 construct: gene ALB; commercial native protein (Sigma Aldrich), mature serum albumin
T1 sequence (P02769 25-607): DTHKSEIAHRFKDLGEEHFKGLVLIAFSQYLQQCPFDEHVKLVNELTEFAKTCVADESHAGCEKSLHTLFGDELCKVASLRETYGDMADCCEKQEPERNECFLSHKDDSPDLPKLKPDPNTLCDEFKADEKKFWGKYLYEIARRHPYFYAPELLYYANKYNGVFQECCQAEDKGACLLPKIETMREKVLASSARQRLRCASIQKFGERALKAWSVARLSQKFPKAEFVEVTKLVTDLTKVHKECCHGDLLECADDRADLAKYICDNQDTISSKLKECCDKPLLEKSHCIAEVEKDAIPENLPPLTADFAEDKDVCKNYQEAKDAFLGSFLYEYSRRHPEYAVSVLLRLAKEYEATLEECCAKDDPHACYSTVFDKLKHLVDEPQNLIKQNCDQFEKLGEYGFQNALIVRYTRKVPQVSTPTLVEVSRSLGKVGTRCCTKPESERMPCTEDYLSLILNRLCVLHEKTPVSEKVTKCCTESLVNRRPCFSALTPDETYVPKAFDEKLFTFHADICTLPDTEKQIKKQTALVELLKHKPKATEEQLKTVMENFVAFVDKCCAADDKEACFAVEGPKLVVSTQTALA

hDPP III [2] = molecular target: T2, hDPP III (Homo sapiens, UniProt Q9NY33, E451A); settings: read-out: logKs (converted)
T2 construct: gene DPP3; recombinant, C-terminal His-tag, expressed in E. coli from pET21b, Ni-NTA purified
T2 sequence (Q9NY33 2-737 E451A): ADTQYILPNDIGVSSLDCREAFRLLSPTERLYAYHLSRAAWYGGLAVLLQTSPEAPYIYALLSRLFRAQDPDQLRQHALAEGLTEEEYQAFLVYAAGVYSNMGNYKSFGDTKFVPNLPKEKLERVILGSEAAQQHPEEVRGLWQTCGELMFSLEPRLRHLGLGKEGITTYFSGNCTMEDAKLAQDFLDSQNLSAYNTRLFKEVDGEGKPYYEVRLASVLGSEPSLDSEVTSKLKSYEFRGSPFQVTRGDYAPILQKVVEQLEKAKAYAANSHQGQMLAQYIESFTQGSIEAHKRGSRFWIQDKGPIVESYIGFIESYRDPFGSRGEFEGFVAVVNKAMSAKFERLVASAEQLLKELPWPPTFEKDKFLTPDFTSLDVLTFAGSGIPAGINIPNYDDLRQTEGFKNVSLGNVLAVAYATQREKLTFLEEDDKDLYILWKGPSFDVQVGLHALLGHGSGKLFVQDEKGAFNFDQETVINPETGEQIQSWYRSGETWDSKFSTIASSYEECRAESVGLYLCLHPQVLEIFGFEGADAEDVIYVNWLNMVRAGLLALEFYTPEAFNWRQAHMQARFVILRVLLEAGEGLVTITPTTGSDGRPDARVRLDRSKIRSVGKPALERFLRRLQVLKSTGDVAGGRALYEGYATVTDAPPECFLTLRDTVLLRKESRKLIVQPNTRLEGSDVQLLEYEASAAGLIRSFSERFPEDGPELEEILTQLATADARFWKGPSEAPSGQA

hDPP III [3] = molecular target: T3, hDPP III (Homo sapiens, UniProt Q9NY33); settings: TRIS-HCl buffer I = 0.02 M, pH 7.4
T3 construct: gene DPP3; recombinant, C-terminal His-tag, expressed in E. coli from pET21b, Ni-NTA purified
T3 sequence (Q9NY33 2-737): T2 sequence (Q9NY33 2-737 E451A) with A450E

SMILES	Kd [1] [nM]	Kd (hDPP III [2]) [nM]	logKs (hDPP III [3]; λexc 342 and 403 nm)	logKs (hDPP III [3]; λexc 400 nm)
Cc1cc(-c2cn(C(CCCCNC(=O)CCCc3ccc4ccc5cccc6ccc3c4c56)C(=O)O)nn2)cc(C)c1B(c1c(C)cc(N(C)C)cc1C)c1c(C)cc(N(C)C)cc1C (stereo not drawn) [compound 2, Triaryl-borane-amino acid-pyrene conjugate 2]	398	398	performed fluorimetric titrations with wild type (wt) hDPP III	
Cc1cc(-c2cn(C(CCCCN)C(=O)O)nn2)cc(C)c1B(c1c(C)cc(N(C)C)cc1C)c1c(C)cc(N(C)C)cc1C (stereo not drawn) [compound 1, Triaryl-borane-amino acid conjugate 1]	501	251		performed fluorimetric titrations with wild type (wt) hDPP III
